Experimental findings from ChEMBL document CHEMBL1134966 (Bioorg Med Chem Lett, 2002) are described below.

Some test systems named below: G-361; K562; CCRF-CEM; MCF7; HOS.
Holding throughout (assay): cells
Holding throughout (format): functional, cell-based
Common to all, as to settings: Homo sapiens

Description for CCRF-CEM: In vitro cytotoxic effect on CEM cancer cell line
Description for G-361: In vitro cytotoxic effect on G361 cancer cell line
Description for HOS: In vitro cytotoxic effect on HOS cancer cell line
Description for K562: In vitro cytotoxic effect on K562 cancer cell line
Description for MCF7: In vitro cytotoxic effect on MCF-7 cancer cell line

A word on the IC50: it is the concentration that gives 50% inhibition. On to `CC(C)n1cnc2c(NCc3ccc(O)cc3)nc(NCCCO)nc21`, for which the IC50 was 23 µM in the test with G-361, 57 µM in the test on K562, 18.2 µM in the test with CCRF-CEM and 12.7 µM with MCF7.

As to `CC(C)n1cnc2c(NCc3cccc(O)c3)nc(NCCCO)nc21`, the IC50 with G-361 amounted to 26 µM; in the test on K562, 56 µM; with HOS, 26 µM; in the test with CCRF-CEM it was 17.6 µM; in the test with MCF7, 14.7 µM.

Turning to `CCC(CO)Nc1nc(NCc2cccc(O)c2)c2ncn(C(C)C)c2n1` (stereo unspecified), the IC50 is 19.4 µM in the test on G-361; 26 µM in the test with K562; 11 µM with HOS; 9.9 µM in the test on CCRF-CEM; 13.7 µM in the test with MCF7.

For `CC(C)C(CO)Nc1nc(NCc2ccc(O)cc2)c2ncn(C(C)C)c2n1` (stereo unspecified), the IC50 came to 11.1 µM in the test on G-361; 14.8 µM in the test with K562; 12 µM with HOS; 5.3 µM in the test with CCRF-CEM; 9.3 µM in the test on MCF7.

With `CC(C)n1cnc2c(NCc3ccccc3O)nc(NCCCO)nc21`, the IC50 with G-361 came to 13.3 µM; in the test on K562, 24 µM; in the test with HOS it was 17.2 µM; in the test with CCRF-CEM, 10.7 µM; with MCF7, 12.4 µM.

As for `CCC(CO)Nc1nc(NCc2ccc(O)cc2)c2ncn(C(C)C)c2n1` (stereo unspecified), the IC50 was 11.1 µM in the test on G-361; 24 µM in the test with K562; 13 µM in the test with HOS; 11 µM with CCRF-CEM; 7.8 µM with MCF7.

Regarding `CC(C)C(CO)Nc1nc(NCc2ccccc2O)c2ncn(C(C)C)c2n1` (stereo unspecified), the IC50 in the test with G-361 is 7.8 µM; in the test on K562, 10.9 µM; in the test on HOS, 8.3 µM; in the test with CCRF-CEM, 4.4 µM; with MCF7, 5.7 µM.

As to `CC(C)C(CO)Nc1nc(NCc2cccc(O)c2)c2ncn(C(C)C)c2n1` (stereo unspecified), the IC50 was determined as 16.1 µM in the test on K562, 6.7 µM in the test on CCRF-CEM and 14.8 µM in the test on MCF7.

As to `CC(C)n1cnc2c(NCc3ccccc3)nc(NCCCO)nc21` [BOHEMINE], the IC50 with G-361 stood at 45 µM; with K562, 113 µM; in the test on HOS, 58 µM; in the test with CCRF-CEM it was 27 µM; in the test on MCF7 it was 28 µM.

For the molecule `CC[C@H](CO)Nc1nc(NCc2ccccc2O)c2ncn(C(C)C)c2n1` [OLOMOUCINE II], the IC50 was found to be 6.3 µM in the test with G-361; 11.1 µM with K562; 6.3 µM in the test on HOS; 3 µM in the test on CCRF-CEM; 5.3 µM in the test with MCF7.

`Cn1cnc2c(NCc3ccccc3)nc(NCCO)nc21` [OLOMOUCINE]: the IC50 is 160 µM with G-361, more than 167 µM with K562, 149 µM in the test on HOS and 62 µM in the test with CCRF-CEM.

Take `CC(C)[C@H](CO)Nc1nc(Nc2cccc(Cl)c2)c2ncn(C(C)C)c2n1` [PURVALANOLA]: the IC50 with G-361 was 24 µM; in the test on K562, 9 µM; in the test on HOS it was 22 µM; with CCRF-CEM it was 7.4 µM; in the test with MCF7 it was 10.7 µM.
